Efflux ratio data for two compounds are collected here from PubChem BioAssay AID504587 (National Center for Advancing Translational Sciences (NCATS), 2011).

Usually efflux ratio stands for the permeability from basolateral to apical divided by that in the opposite direction, in the common usage.

Molecules are shown by their SMILES.

The test system of the series is Caco-2 bidirectional permeability, LC-MS/MS efflux ratio. As to the kind of experiment: Inhibitors of HPGD: Efflux Ratio Profiling. To be noted: active compounds read low. The source says:
Human 15-Hydroxyprostaglandin dehydrogenase (HPGD) catalyzes the inactivation of prostaglandin E2, and plays a major role in cancer biology by antagonizing the oncogenic potential of cyclooxygenase type 2 (COX2). Assays are available, based on absorbance/fluorescence increase of NADH with the substrate 15-OH prostaglandin E2. This bioassays provides profiling data on Caco-2 cell permeability of leads compounds developed for the HPGD project. This in vitro model is often predictive of in vivo efflux of the compound by measuring the ratio of transport in and out the plasma membrane of the Caco2-cell line. NIH Chemical Genomics Center [NCGC] Structural Genomics Consortium [SGC]
1. Buffer Preparation: Prepare 1M HEPES: add 23.83g HEPES to 100ml of 0.85% NaCl Prepare HBSS+ buffer: add 12.8ml of 1M HEPES in 0.85% NaCl to 500ml HBSS buffer. 2. Take out the compounds from -80 degrees C, ultrasonicate or pre-warm for a few minutes to thaw the compounds. 3. Solution preparation Prepare donor buffer: For A-to-B direction: HBSS buffer with 0.3% DMSO and 5uM Lucifer Yellow (LY): add 150 µl DMSO and 50 µl LY (5mM) into 50ml HBSS buffer (pH 7.4). HBSS buffer with 0.1% DMSO and 5 µM Lucifer Yellow (LY): add 50 µl DMSO and 50 µl LY (5mM) into 50ml HBSS buffer (pH 7.4). […] The T0, LY and T90, LY plates are read by FlexStation 3 at excitation of 485 nm and emission of 535 nm to determine LY permeability. […]

As for `Cc1cc(-c2nnc3n2CCCCC3)c(C)n1-c1ccccc1`, the efflux ratio was 21.
The figure for `Cc1cccc(-n2cnc3cc(C(=O)N4CCCCC4)ccc32)c1` is 15.
